Source: patent publication US20010044449A1, “REMEDIES FOR DRUG ADDICTION” (priority 1997, published 2001)
Structures can show the parent of a compound that is named as a salt. Marks after values point to notes of the source that are not given here.

Key:
[1] = tested on: Sprague Dawley strain (SD strain) male rats; test: Conditioned place preference (CPP) method, psychic dependence induced by cocaine
ddY strain male mouse = test: Naloxone-induced withdrawal syndrome in morphine-dependent mouse (physical dependence); type: in vivo; conditions: for Blepharoptosis: numbers of mouse manifesting withdrawal syndrome/numbers of total mouse / Diarrhea: numbers of mouse manifesting withdrawal syndrome/numbers of total mouse / Fore paw tremor: numbers of mouse manifesting withdrawal syndrome/numbers of total mouse / Jumping: numbers of mouse manifesting withdrawal syndrome/numbers of total mouse / Rearing: numbers of mouse manifesting withdrawal syndrome/numbers of total mouse / Wobbling: numbers of mouse manifesting withdrawal syndrome/numbers of total mouse: naloxone 3 mg/kg
Rats = test: Cocaine drug discrimination test (feeding behavior with lever pressing); type: in vivo, rat
SD strain male rats = test: Mecamylamine-induced nicotine withdrawal aversion (CPP operant boxes); type: in vivo, rat
Description: Animals used were SD strain male rats in this experiment. Experiments used were CPP operant boxes. Experiments were performed by using an aversive model in a nicotine withdrawal syndrome induced by mecamylamine, that is, a nicotine receptor antagonist. (Tsutomu Suzuki, Molecular Medicine, 32, 140 (1995); Suzuki, T. et al., Eur. J. Pharm., 314, 281 (1996); Maldonado, R. et al., J. Pharmacol. Exp. Ther., 261, 669 (1992)). Mini-osmotic pump (Alzet 2001) injected with nicotine (1 μl/hr, for seven days) was implanted under dorsal skin of the rats. An aqueous solution at a concentration of 121.4 mg/ ml was prepared so that a nicotine dose was adjusted to 10 mg/kg/day. Then, the aqueous solution was filled into the mini-osmotic pump. The rats were given conditioning training by the following counter-balance method. In the morning of the seventh day after the implantation of the mini-osmotic pump, mecamylamine (1 mg/ml), that is, nicotine receptor antagonist or physiological saline was subcutaneously injected. Then, the rats were placed in one compartment for 60 minutes. […] The periods in which the rats remained in each compartment colored white or black were measured for 15 minutes.

[2] = tested on: dopamine release in the nucleus accumbens; test: High K+ stimulated dopamine release from nucleus accumbens slices (HPLC-ECD); type: cell-based; conditions: rat nucleus accumbens slices, 20 mM high K+ stimulation; FIG. 11
[3] = tested on: Sprague Dawley strain (SD strain) male rats; test: Conditioned place preference (CPP) method, psychic dependence induced by morphine; conditions: for Psychic dependence and aversion of compound alone (period in drug- or solvent-conditioned box): compound alone vs solvent control group
chronic smokers = conditions: for three hours, double blind and cross-over test vs placebo; Karras et al. 1980; cited from earlier work
[4] = tested on: rats with nicotine dependence; conditions: Malin et al. 1993; cited from earlier work
[5] = cocaine 10 mg/kg i.p. in combination with compound 0.1 mg/kg s.c., FIGS. 5 and 6
[6] = Compound 3 0.003 mg/kg s.c. with morphine
[7] = Compound 3 0.01 mg/kg s.c. with morphine
[8] = Compound 3 0.03 mg/kg s.c. with morphine
[9] = morphine 3 mg/kg s.c. in combination with compound 0.1 mg/kg s.c., FIGS. 1 and 2

Compound: Cc1cccc(C#CC(=O)N(C)[C@@H]2CC[C@@]3(O)[C@H]4Cc5ccc(O)c6c5[C@@]3(CCN4CC3CC3)[C@H]2O6)c1 [Compound 4, 17-(cyclopropylmethyl)-3,14β-dihydroxy-4,5α-epoxy-6β-[N-methyl-3-(3-methylphenyl)propiolamide] morphinan hydrochloride]
- Development of drug dependence induced by cocaine (period rats remained in drug-conditioned box) [1, 5]: inhibited the development of drug dependence induced by cocaine
- Psychic dependence and aversion of compound alone (period in drug- or solvent-conditioned box) [1]: did not produce psychic dependence and aversion

Compound: CN(C(=O)/C=C/c1ccoc1)[C@@H]1CC[C@@]2(O)[C@H]3Cc4ccc(O)c5c4[C@@]2(CCN3CC2CC2)[C@H]1O5 [Compound 3, 17-(cyclopropylmethyl)-3,14β-dihydroxy-4,5α-epoxy-6β-[N-methyl-trans-3-(3-furyl)acrylamide] morphinan hydrochloride]
- Incidence rates of jumping, shaking, and diarrhea (ddY strain male mouse; 0.03 mg/kg, compared with morphine alone group): significantly decreased
- Body weight reduction (withdrawal) (ddY strain male mouse; 0.01 or 0.03 mg/kg, compared with morphine alone group, FIG. 4): significant suppression of body weight reduction
- Blepharoptosis: numbers of mouse manifesting withdrawal syndrome/numbers of total mouse (ddY strain male mouse; [6]): 10/10
- Diarrhea: numbers of mouse manifesting withdrawal syndrome/numbers of total mouse (ddY strain male mouse; [6]): 7/10
- Fore paw tremor: numbers of mouse manifesting withdrawal syndrome/numbers of total mouse (ddY strain male mouse; [6]): 9/10
- Jumping: numbers of mouse manifesting withdrawal syndrome/numbers of total mouse (ddY strain male mouse; [6]): 3/10
- Rearing: numbers of mouse manifesting withdrawal syndrome/numbers of total mouse (ddY strain male mouse; [6]): 10/10
- Wobbling: numbers of mouse manifesting withdrawal syndrome/numbers of total mouse (ddY strain male mouse; [6]): 7/10
- Blepharoptosis: numbers of mouse manifesting withdrawal syndrome/numbers of total mouse (ddY strain male mouse; [7]): 10/10
- Diarrhea: numbers of mouse manifesting withdrawal syndrome/numbers of total mouse (ddY strain male mouse; [7]): 6/10
- Fore paw tremor: numbers of mouse manifesting withdrawal syndrome/numbers of total mouse (ddY strain male mouse; [7]): 10/10
- Jumping: numbers of mouse manifesting withdrawal syndrome/numbers of total mouse (ddY strain male mouse; [7]): 5/10
- Rearing: numbers of mouse manifesting withdrawal syndrome/numbers of total mouse (ddY strain male mouse; [7]): 7/10
- Wobbling: numbers of mouse manifesting withdrawal syndrome/numbers of total mouse (ddY strain male mouse; [7]): 5/10
- Blepharoptosis: numbers of mouse manifesting withdrawal syndrome/numbers of total mouse (ddY strain male mouse; [8]): 10/10
- Diarrhea: numbers of mouse manifesting withdrawal syndrome/numbers of total mouse (ddY strain male mouse; [8]): 3/10*
- Fore paw tremor: numbers of mouse manifesting withdrawal syndrome/numbers of total mouse (ddY strain male mouse; [8]): 7/10
- Jumping: numbers of mouse manifesting withdrawal syndrome/numbers of total mouse (ddY strain male mouse; [8]): 3/10*
- Rearing: numbers of mouse manifesting withdrawal syndrome/numbers of total mouse (ddY strain male mouse; [8]): 8/10
- Wobbling: numbers of mouse manifesting withdrawal syndrome/numbers of total mouse (ddY strain male mouse; [8]): 3/10*
- Naloxone-induced withdrawal syndrome (ddY strain male mouse; simultaneous administration with morphine, 0.003-0.03 mg/kg s.c.): relieved by the simultaneous administration of Compound 3 in a dose-dependent manner
- Rates of feeding behavior with lever pressing (cocaine discrimination) (Rats; Compound 3 10 μg/kg with cocaine 1.25, 2.5, or 5 mg/kg vs saline + cocaine, FIG. 8): significantly decreased
- Inhibitory effect of cocaine discrimination (Rats; Compound 3 20 μg/kg with cocaine, compared with 10 μg/kg): enhanced
- Aversive effect induced by mecamylamine (nicotine withdrawal) (SD strain male rats; pretreatment 30 μg/kg vs physiological saline pretreatment): significantly inhibited the aversive effect
- Aversive effect induced by mecamylamine (nicotine withdrawal) (SD strain male rats; pretreatment 10 or 30 μg/kg s.c., 30 minutes before mecamylamine, FIG. 10): inhibited by the pretreatment with Compound 3 (10 or 30 μg/kg) in a dose dependent manner
- Dopamine release in the nucleus accumbens [2]: inhibited dopamine release in the nucleus accumbens
- Psychic dependence and aversion of compound alone (period in drug- or solvent-conditioned box) [3]: did not produce psychic dependence and aversion
- Development of drug dependence caused by morphine (period rats remained in drug-conditioned box) ([3]; morphine 5 mg/kg s.c. in combination with Compound 3 0.1 or 0.03 mg/kg s.c., FIG. 3): inhibited the development of drug dependence caused by morphine

Compound: 17-(cyclopropylmethyl)-3,14β-dihydroxy-4,5α-epoxy-6β-[N-methyl-trans-3-(methoxycinnamide) morphinan tartrate [Compound 5]
- Development of drug dependence induced by cocaine (period rats remained in drug-conditioned box) [1, 5]: inhibited the development of drug dependence induced by cocaine
- Psychic dependence and aversion of compound alone (period in drug- or solvent-conditioned box) [1]: did not produce psychic dependence and aversion

Compound: C=CCN1CC[C@]23c4c5ccc(O)c4O[C@H]2C(=O)CC[C@@]3(O)[C@H]1C5 [naloxone]
- Intake of tobacco of chronic smokers (chronic smokers): effective for a reduction in intake of tobacco
- Withdrawal syndrome in rats with nicotine dependence [4]: accelerates a withdrawal syndrome

Compound: CN1CC[C@]23c4c5ccc(O)c4O[C@H]2[C@@H](O)C=C[C@H]3[C@H]1C5 [morphine, reference compound]
- Withdrawal syndrome after naloxone administration (ddY strain male mouse; morphine alone 8 to 45 mg/kg s.c. twice a day for five days, naloxone 3 mg/kg s.c.): withdrawal syndrome was recognized
- Withdrawal syndrome in rats with nicotine dependence [4]: inhibits the withdrawal syndrome

Compound: CN(C(=O)C#Cc1ccc(C(F)(F)F)cc1)[C@@H]1CC[C@@]2(O)[C@H]3Cc4ccc(O)c5c4[C@@]2(CCN3CC2CC2)[C@H]1O5.O=C(O)/C=C\C(=O)O [Compound 1, 17-(cyclopropylmethyl)-3,14β-dihydroxy-4,5α-epoxy-6β-[N-methyl-3-(4-trifluoromethylphenyl)propiolamide] morphinan maleate]
- Development of drug dependence induced by cocaine (period rats remained in drug-conditioned box) ([1]; cocaine 4 mg/kg i.p. in combination with Compound 1 0.2 mg/kg i.p., FIG. 7): inhibited the development of drug dependence induced by cocaine
- Psychic dependence and aversion of compound alone (period in drug- or solvent-conditioned box) [1]: did not produce psychic dependence and aversion
- Psychic dependence and aversion of compound alone (period in drug- or solvent-conditioned box) [3]: did not develop psychic dependence and aversion
- Development of drug dependence caused by morphine (period rats remained in drug-conditioned box) [3, 9]: inhibited the development of drug dependence caused by morphine

Compound: Cc1cccc(/C=C/C(=O)N(C)[C@@H]2CC[C@@]3(O)[C@H]4Cc5ccc(O)c6c5[C@@]3(CCN4CC3CC3)[C@H]2O6)c1 [Compound 2, 17-(cyclopropylmethyl)-3,14β-dihydroxy-4,5α-epoxy-6β-(N-methyl-3-methylcinnamide) morphinan hydrochloride]
- Psychic dependence and aversion of compound alone (period in drug- or solvent-conditioned box) [3]: did not develop psychic dependence and aversion
- Development of drug dependence caused by morphine (period rats remained in drug-conditioned box) [3, 9]: inhibited the development of drug dependence caused by morphine

Compound: Oc1ccc2c3c1O[C@H]1c4[nH]c5c(c4C[C@@]4(O)[C@@H](C2)N(CC2CC2)CC[C@]314)C[C@@]1(O)[C@H]2Cc3ccc(O)c4c3[C@@]1(CCN2CC1CC1)[C@H]5O4 [nor-BNI, norbinaltorphimine, reference compound]
- Antagonism of the inhibitory effect of cocaine discrimination of Compound 3 (Rats; nor-BNI pretreatment, Compound 3 0.02 mg/kg + cocaine, FIG. 9): antagonized
- Antagonism of the inhibitory effect caused by Compound 3 ([3]; pretreatment 3 mg/kg, morphine 5 mg/kg s.c. + Compound 3 0.03 mg/kg s.c.): significantly antagonized
